Results reported in patent US11999727B2 (Tango Therapeutics, Inc., priority 2020, dated 2024).

What was measured:
[1] = biological target: T1, PRMT5 (Homo sapiens, UniProt O14744); assay: PRMT5 biochemical IC50 assay with no cofactor; conditions: PRMT5, no cofactor; read-out: No Cofactor/ rel IC50
T1 construct: purchased Viva (custom protein)
Description: Table 1 indicates IC50 values (μM) against PRMT5 for exemplary compounds in the presence of SAM as cofactor, with no cofactor, and with MTA as cofactor, respectively (columns 4-6). […] Ki values can be calculated from the IC50 values as described in the Examples section. As detailed in the Examples section, for the assay performed in the presence of SAM, IC50=Ki×1.5 (Ki=IC50/1.5).

[2] = tested on: HAP1 MTAP-deleted cell line; assay: SDMA in-cell western assay, HAP1 MTAP-deleted; type: cell-based; conditions: for IC50: Homo sapiens, HAP1, SDMA in-cell western, HAP1 MTAP-deleted, read-out: HAP 1 MTAP deleted IC50; for MTAP intact/deleted ratio: IC50 ratio HAP1 MTAP-intact / HAP1 MTAP-deleted, SDMA in-cell western
In short: (§1)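 Isogenic HAP1 pair: the MTAP-intact line expresses endogenous MTAP, and the deleted line is MTAP-null. Symmetric dimethylarginine was detected by in-cell western and IC50 values derived for each line.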

[3] = biological target: T1, PRMT5; assay: PRMT5 biochemical IC50 assay with MTA as cofactor; conditions: PRMT5, MTA as cofactor; read-out: MTA IC50
[4] = tested on: HAP1 MTAP-deleted cell line; assay: Viability assay, MTAP-deleted cell line; type: cell-based; conditions: Homo sapiens, HAP1, viability, HAP1 MTAP-deleted cell line; read-out: HAP1 MTAP deleted viability
Description: Table 1 additionally indicates IC50 values in a viability assay for the MTAP-deleted cell line (column 10), indicating the effect of treatment with compound on cell survival.

[5] = tested on: HAP1 MTAP-intact cell line; assay: SDMA in-cell western assay, HAP1 MTAP-intact; type: cell-based; conditions: Homo sapiens, HAP1, SDMA in-cell western, HAP1 MTAP-intact; read-out: MTAP HAP1 intact IC50
In short: as §1

[6] = biological target: T1, PRMT5; assay: PRMT5 biochemical IC50 assay with SAM as cofactor; conditions: PRMT5, SAM as cofactor; read-out: SAM IC50

T1 sequence (O14744 whole entry): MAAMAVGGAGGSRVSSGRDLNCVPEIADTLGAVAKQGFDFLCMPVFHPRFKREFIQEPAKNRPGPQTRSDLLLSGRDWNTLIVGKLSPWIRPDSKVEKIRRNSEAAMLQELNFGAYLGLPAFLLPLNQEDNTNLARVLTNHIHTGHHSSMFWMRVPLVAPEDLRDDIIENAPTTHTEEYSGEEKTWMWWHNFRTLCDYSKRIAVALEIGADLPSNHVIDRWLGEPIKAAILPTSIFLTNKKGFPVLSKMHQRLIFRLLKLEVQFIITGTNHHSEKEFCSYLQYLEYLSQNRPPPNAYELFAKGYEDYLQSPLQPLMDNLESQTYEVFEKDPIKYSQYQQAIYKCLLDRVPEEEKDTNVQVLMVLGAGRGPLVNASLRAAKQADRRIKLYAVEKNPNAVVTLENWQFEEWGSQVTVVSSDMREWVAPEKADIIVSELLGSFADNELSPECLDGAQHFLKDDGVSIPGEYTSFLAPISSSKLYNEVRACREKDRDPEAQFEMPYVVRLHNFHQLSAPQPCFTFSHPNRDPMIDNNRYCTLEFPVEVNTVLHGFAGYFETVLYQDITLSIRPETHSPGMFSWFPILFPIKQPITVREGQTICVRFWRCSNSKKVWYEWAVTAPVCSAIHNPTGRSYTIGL
T1 sequence (Q9BQA1 whole entry partner): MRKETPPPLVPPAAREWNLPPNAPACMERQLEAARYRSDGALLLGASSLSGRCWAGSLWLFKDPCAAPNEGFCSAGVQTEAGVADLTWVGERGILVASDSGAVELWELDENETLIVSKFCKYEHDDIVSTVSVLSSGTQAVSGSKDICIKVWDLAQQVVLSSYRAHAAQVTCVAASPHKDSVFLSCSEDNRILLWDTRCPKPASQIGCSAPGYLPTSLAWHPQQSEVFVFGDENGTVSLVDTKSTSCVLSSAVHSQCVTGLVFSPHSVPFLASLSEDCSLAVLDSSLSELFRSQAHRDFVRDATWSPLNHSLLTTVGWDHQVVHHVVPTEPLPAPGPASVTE

| SMILES | IC50 [1] | IC50 [2] | MTAP intact/deleted ratio [2] | IC50 [3] | IC50 [4] | IC50 [5] | IC50 [6] |
| --- | --- | --- | --- | --- | --- | --- | --- |
| CCc1cc(NC(=O)C(=O)N2C[C@@H](C)CC[C@@H]2c2ccc(N3CCC(CN4CCCC4)CC3)cc2)cnc1N [Compound 1276, N-(6-Amino-5-ethylpyridin-3-yl)-2-[(2R,5S)-5-methyl-2-(4-{4-[(pyrrolidin-1-yl)methyl]piperidin-1-yl}phenyl)piperidin-1-yl]-2-oxoacetamide] | < 50 nM | < 100 nM | A (an IC50 ratio greater than or equal to 10 fold) | < 50 nM | < 1000 nM | 100 to 1000 nM | < 50 nM |
| CCc1cc(NC(=O)C(=O)N2C[C@@H](C)CC[C@@H]2c2ccc3sc(C4CCCN4C)nc3c2)cnc1N (stereo partly drawn) [Compound 1282, N-(6-amino-5-ethylpyridin-3-yl)-2-((2R,5S)-5-methyl-2-(2-(1-methylpyrrolidin-2-yl)benzo[d]thiazol-5-yl)piperidin-1-yl)-2-oxoacetamide] | < 50 nM | < 100 nM | A (an IC50 ratio greater than or equal to 10 fold) | < 50 nM | < 1000 nM | 100 to 1000 nM | 50 to 500 nM |
| CCc1cc(NC(=O)C(=O)N2C[C@@H](C)CC[C@@H]2c2ccc3sc(C4CC5(C4)CN(C)C5)nc3c2)cnc1N [Compound 1283, N-(6-amino-5-ethylpyridin-3-yl)-2-((2R,5S)-5-methyl-2-(2-(2-methyl-2-azaspiro[3.3]heptan-6-yl)benzo[d]thiazol-5-yl)piperidin-1-yl)-2-oxoacetamide] | < 50 nM | < 100 nM | A (an IC50 ratio greater than or equal to 10 fold) | < 50 nM | < 1000 nM | < 100 nM | < 50 nM |
| COc1ncc(NC(=O)C(=O)N2C[C@@H](C)CC[C@@H]2c2ccc3sc(CCN4CCCC4)nc3c2)cc1C(N)=O [Compound 1288, 2-methoxy-5-(2-((2R,53)-5-methyl-2-(2-(2-(pyrrolidin-1-yl)ethyl)benzo[d]thiazol-5-yl)piperidin-1-yl)-2-oxoacetamido)nicotinamide] | 50 to 500 nM | < 100 nM | A (an IC50 ratio greater than or equal to 10 fold) | < 50 nM | < 1000 nM | 100 to 1000 nM | 50 to 500 nM |
| CCc1cc(NC(=O)C(=O)N2C[C@@H](C)CC[C@@H]2c2cccc(OC[C@@H](C)N(C)C)c2)cnc1N [Compound 1290, N-(6-amino-5-ethylpyridin-3-yl)-2-((2R,5S)-2-(3-(2-(dimethylamino)propoxy)phenyl)-5-methylpiperidin-1-yl)-2-oxoacetamide] | < 50 nM | < 100 nM | A (an IC50 ratio greater than or equal to 10 fold) | < 50 nM | < 1000 nM | 100 to 1000 nM | 50 to 500 nM |
| CCc1cc(NC(=O)C(=O)N2C[C@@H](C)CC[C@@H]2c2ccc(OCCN(C)C)cc2)cnc1N [Compound 1292, N-(6-amino-5-ethylpyridin-3-yl)-2-((2R,5S)-2-(4-(2-(dimethylamino)ethoxy)phenyl)-5-methylpiperidin-1-yl)-2-oxoacetamide] | < 50 nM | < 100 nM | A (an IC50 ratio greater than or equal to 10 fold) | < 50 nM | < 1000 nM | 100 to 1000 nM | 50 to 500 nM |
| CCc1cc(NC(=O)C(=O)N2C[C@@H](C)CC[C@@H]2c2ccc(N3CCN(C)C[C@H]3C)nc2)cnc1N [Compound 1294, N-(6-amino-5-ethyl-3-pyridyl)-2-[(2R,5S)-2-[6-[(2R)-2,4-dimethylpiperazin-1-yl]-3-pyridyl]-5-methyl-1-piperidyl]-2-oxo-acetamide] | < 50 nM | < 100 nM | A (an IC50 ratio greater than or equal to 10 fold) | < 50 nM | < 1000 nM | 100 to 1000 nM | 50 to 500 nM |
| Cc1cc(NC(=O)C(=O)N2C[C@@H](C)CC[C@@H]2c2ccc3sc(CCN4CCCC4)nc3c2)cnc1N [Compound 1296, N-(6-amino-5-methylpyridin-3-yl)-2-((2R,5S)-5-methyl-2-(2-(2-(pyrrolidin-1-yl)ethyl)benzo[d]thiazol-5-yl)piperidin-1-yl)-2-oxoacetamide] | < 50 nM | < 100 nM | A (an IC50 ratio greater than or equal to 10 fold) | < 50 nM | < 1000 nM | < 100 nM | < 50 nM |
| CCc1cc(NC(=O)C(=O)N2C[C@@H](C)CC[C@@H]2c2ccc3sc(C45CCN(CC4)C5)nc3c2)cnc1N [Compound 1298, 2-((2R,5S)-2-(2-(1-azabicyclo[2.2.1]heptan-4-yl)benzo[d]thiazol-5-yl)-5-methylpiperidin-1-yl)-N-(6-amino-5-ethylpyridin-3-yl)-2-oxoacetamide] | < 50 nM | < 100 nM | B (an IC50 ratio greater than or equal to 3 fold but lower than 10 fold) | < 50 nM | < 1000 nM | < 100 nM | 50 to 500 nM |
| Cc1ncc(NC(=O)C(=O)N2C[C@@H](C)CC[C@@H]2c2ccc3sc(C4CCN(C)CC4)nc3c2)cc1C(F)(F)F [Compound 1300, 2-((2R,5)-5-methyl-2-(2-(1-methylpiperidin-4-yl)benzo[d]thiazol-5-yl)piperidin-1-yl)-N-(6-methyl-5-(trifluoromethyl)pyridin-3-yl)-2-oxoacetamide] | < 50 nM | < 100 nM | A (an IC50 ratio greater than or equal to 10 fold) | < 50 nM | < 1000 nM | 100 to 1000 nM | 50 to 500 nM |
| Cc1ncc(NC(=O)C(=O)N2C[C@@H](C)CC[C@@H]2c2ccc3sc(C4CCN(C)CC4)nc3c2)cc1C(F)F [Compound 1301] | < 50 nM | < 100 nM | A (an IC50 ratio greater than or equal to 10 fold) | < 50 nM | < 1000 nM | < 100 nM | < 50 nM |
| CCc1cc(NC(=O)C(=O)N2C[C@@H](C)CC[C@@H]2c2ccc3sc(CN(C)C(C)C)nc3c2)cnc1N [Compound 1303, N-(6-amino-5-ethylpyridin-3-yl)-2-((2R,5S)-2-(2-((isopropyl(methyl)amino)methyl)benzo[d]thiazol-5-yl)-5-methylpiperidin-1-yl)-2-oxoacetamide] | < 50 nM | < 100 nM | A (an IC50 ratio greater than or equal to 10 fold) | < 50 nM | < 1000 nM | 100 to 1000 nM | 50 to 500 nM |
| CCc1cc(NC(=O)C(=O)N2C[C@@H](C)CC[C@@H]2c2ccc3sc(C4CCN(CC(F)F)CC4)nc3c2)cnc1N [Compound 1304, N-(6-amino-5-ethylpyridin-3-yl)-2-((2R,5S)-2-(2-(1-(2,2-difluoroethyl)piperidin-4-yl)benzo[d]thiazol-5-yl)-5-methylpiperidin-1-yl)-2-oxoacetamide] | < 50 nM | < 100 nM | A (an IC50 ratio greater than or equal to 10 fold) | < 50 nM | < 1000 nM | 100 to 1000 nM | < 50 nM |
